Some results are limits rather than exact numbers.

The text below walks through data of patent US12122750B2, “AT2R antagonists and uses thereof” (Eli Lilly and Company, priority 2022, dated 2024).

For test [1], the target named is AT2R (Rattus norvegicus (Rat), UniProt P35351). Kind of test: AT2R ex vivo autoradiography receptor occupancy in rat adrenal sections after oral dosing. The arrangement: species or system Sprague Dawley rats. As for the experimental part: The ability for a compound to engage its target may be measured by determining compound's receptor occupancy. An ex vivo autoradiography assay was conducted as described herein.
Twenty male Sprague Dawley rats (140-150 gms, Envigo) were maintained under controlled laboratory conditions on a 12 hr light cycle with ad lib access to food and water. […] Following a pre-determined survival time, plasma and adrenals were collected and frozen at −80° C. until analyzed. Frozen 20 μm sections of an adrenal from each animal were collected onto gelatin-coated slides and stored at −80° C. […] The specific ligand binding for each animal is calculated by subtracting the non-specific binding from the total bound.

Test [2] concerns the target recombinant human angiotensin-II receptor subtype I (hAT1R) (Homo sapiens (Human), UniProt P30556). Kind of test: Competitive radioligand binding assay (SPA), hAT1R/CHO membranes. The note with it: [125I]-Tyr4-Angiotensin-II, read-out: AT1R Ki. As for the experimental part: Membranes hATIR/CHO were Purchased from PerkinElmer, Inc.
Cellular membranes prepared from Chinese hamster ovary (CHO) cells which expressed recombinant human angiotensin-II receptor subtype I (hAT1R), were purchased from PerkinElmer (Catalog Number ES-072-M400UA).
(§1) Receptor Binding Protocol
(§2) The assays were performed with a scintillation proximity assay (SPA) method using polyvinyltoluene (PVT) wheat germ agglutinin-coupled SPA beads (Perkin Elmer Cat. #RPNQ0001). Assay buffer containing BSA (50 mM Tris-HCl, pH 7.5, 150 mM NaCl, 0.1% w/v fatty-acid free BSA) was used for preparing radioligand, membrane and SPA bead reagent dilution to working stock concentrations. Reference control and test compounds were diluted to obtain ten-point concentration response curves using a four-fold serial dilution protocol onto assay plates, dispensed acoustically from DMSO stock using automated ECHO instrument technology (Labcyte, Inc.). Concentration response curves were routinely generated with the highest final assay concentration for the reference angiotensin-II control at 50 nM, and the highest final assay concentration for the test compounds at 50 μM. […] The hAT2R membrane was combined with PVT-WGA SPA beads to obtain a final assay concentration of 0.25 μg/well hAT2R membrane+0.1 mg/well PVT-WGA SPA bead. And the hAT1R membrane PVT-WGA SPA bead final concentrations was 0.5 μg/well hAT1R membrane+0.1 mg/well PVT-WGA SPA bead. […] For all assays, radioligand addition was followed by the addition of membrane-SPA bead mixture, i.e., the hAT2R membrane-SPA bead mixture (30 μL), the rAT2R membrane-SPA bead mixture, or the AT1R membrane-SPA bead mixture (30 μL) into the assay plate. All dispensing steps were added using a Multiflo FX (Biotek, Inc.) bulk dispensing instrument. After reagent addition steps, assay plates were sealed, and plate contents mixed for one minute on a benchtop micro-plate shaker. Following a 10-hour incubation at room temperature to allow for bead settling and radioligand binding, bound radioactivity was quantitated using a Microbeta Trilux scintillation counter (Perkin Elmer) and expressed as counts per minute (CPM). The unlabeled angiotensin-II control was included on each plate as an experimental assay reference.
(§3) Compounds were tested in a 10-point concentration response curve (CRC) format, with each plate containing the positive control angiotensin-II positive reference compound, and experimental compounds. Maximum binding response (Max) was determined in 32 control wells per plate using assay buffer treatment only, and the minimum binding controls or nonspecific binding response (Min) was also determined in 32 wells per plate by the treatment with 50 nM angiotensin-II. All test sample concentration responses were normalized to the control response and calculated as a percent of the maximal response after correcting for nonspecific binding as shown below: % Specific inhibition=100%−[(CPM−Min)/(Max−Min)×100%]
(§4) Percent specific binding (y-axis) was plotted versus the log concentration of compound (x-axis).
Binding affinities for compounds of the present disclosure were determined according to the assay described herein.
Binding affinities for compounds of the present disclosure were determined according to the assay described above.

For test [3], the target named is rAT2R (Rattus norvegicus (Rat), UniProt P35351). Kind of test: Rat binding affinity, competitive radioligand binding assay (SPA), rAT2R HEK293 membranes. The note with it: rat AT2R. As for the experimental part: Membrane Preparation Protocol (hAT2R HEK293 and rAT2R HEK293)
as §1, §2, §3, §4

For test [4], the target named is recombinant human angiotensin-II receptor subtype 2 (hAT2R) (Homo sapiens (Human), UniProt P50052). Kind of test: Competitive radioligand binding assay (SPA), hAT2R HEK293 membranes. The note with it: [125I]-Tyr4-Angiotensin-II, read-out: AT2R Ki. In a few lines:
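SPA competition binding on membranes from HEK293 cells stably transfected with hAT2R (0.25 μg/well, with 0.1 mg/well PVT-WGA beads) in 50 mM Tris-HCl pH 7.5, 150 mM NaCl, 0.1% fatty-acid-free BSA. Ten-point four-fold dilution curves ran from 50 μM top final concentration. Bound radioactivity was counted (CPM) after 10 h at room temperature.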

The mark [5] stands for this setting: plasma concentration plotted vs % receptor occupancy, rat.

Sequence of AT2R (P35351 whole entry): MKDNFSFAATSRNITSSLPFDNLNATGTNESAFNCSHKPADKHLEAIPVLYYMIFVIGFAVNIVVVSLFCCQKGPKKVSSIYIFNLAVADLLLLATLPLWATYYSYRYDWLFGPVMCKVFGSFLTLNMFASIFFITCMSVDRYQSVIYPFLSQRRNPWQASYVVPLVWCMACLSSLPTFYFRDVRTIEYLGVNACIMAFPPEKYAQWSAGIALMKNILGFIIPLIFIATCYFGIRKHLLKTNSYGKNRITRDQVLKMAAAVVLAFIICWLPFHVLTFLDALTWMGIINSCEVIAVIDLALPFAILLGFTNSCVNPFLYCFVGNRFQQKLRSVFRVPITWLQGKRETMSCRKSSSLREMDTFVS
Sequence of recombinant human angiotensin-II receptor subtype I (hAT1R) (P30556 whole entry): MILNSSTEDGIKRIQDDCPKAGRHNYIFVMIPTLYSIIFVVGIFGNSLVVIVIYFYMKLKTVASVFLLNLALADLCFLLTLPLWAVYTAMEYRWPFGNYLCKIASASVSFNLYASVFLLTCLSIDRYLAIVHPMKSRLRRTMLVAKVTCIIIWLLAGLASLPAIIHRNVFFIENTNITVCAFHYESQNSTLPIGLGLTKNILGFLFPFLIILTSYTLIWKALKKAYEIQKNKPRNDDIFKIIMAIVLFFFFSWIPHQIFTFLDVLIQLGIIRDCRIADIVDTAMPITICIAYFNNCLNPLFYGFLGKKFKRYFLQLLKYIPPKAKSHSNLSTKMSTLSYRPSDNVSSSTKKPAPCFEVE
Sequence of recombinant human angiotensin-II receptor subtype 2 (hAT2R) (P50052 whole entry): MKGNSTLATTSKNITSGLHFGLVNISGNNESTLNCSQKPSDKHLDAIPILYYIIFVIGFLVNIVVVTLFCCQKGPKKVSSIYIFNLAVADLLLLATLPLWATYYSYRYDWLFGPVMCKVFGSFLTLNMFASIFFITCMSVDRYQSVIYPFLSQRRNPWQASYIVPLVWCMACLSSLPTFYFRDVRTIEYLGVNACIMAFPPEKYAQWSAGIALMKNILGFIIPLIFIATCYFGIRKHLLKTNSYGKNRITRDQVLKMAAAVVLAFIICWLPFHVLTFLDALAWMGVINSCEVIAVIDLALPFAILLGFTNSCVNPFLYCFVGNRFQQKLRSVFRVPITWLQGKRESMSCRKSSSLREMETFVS
Sequence of rAT2R (P35351 whole entry): as the sequence (P35351 whole entry) above

The IC50 is the concentration that gives 50% inhibition. As a reminder, the IC80 is the point of the concentration-response curve where the effect stands at 80%. Read a high IC80 as weaker potency. In general, Ki refers to a dissociation constant, usually derived from enzyme kinetics or from competition with a known ligand. Regarding `O=C(CC1(C(=O)O)CCN(c2ccccn2)CC1)N(c1ccccc1)C1CCCC(F)(F)C1` (single isomer, unassigned) [Example 74B, 4-(2-((3,3-difluorocyclohexyl)(phenyl)amino)-2-oxoethyl)-1-(pyridin-2-yl)piperidine-4-carboxylic acid], in test [1] (setting [5]), the concentration for half-maximal inhibition (IC50) was determined as 1.58 nM and the IC80 is 3.82 nM. In test [1] (rat receptor occupancy), the “ex vivo IC50 (TER)” value came to 2.358 TER and the “ex vivo IC80 (TER)” value was found to be 5.701 TER. Also, in test [2], the Ki was greater than 49900 nM. Further, in test [3], the Ki was found to be 0.67 nM. Further, the inhibitory constant (Ki) in test [4] came to 1.28 nM.
